Converted amounts (≈) assume the structure as drawn. The source made the active and inactive calls. No cut-off for these calls is given here.
Legend:
Pseudomonas aeruginosa [1] = assay: Antibacterial activity against Pseudomonas aeruginosa ATCC 27853 after 18 hrs by microdilution broth method; assay type: functional; conditions: ATCC 27853, 18 h
Streptococcus pyogenes = assay: Antibacterial activity against Streptococcus pyogenes ATCC 12344 after 18 hrs by microdilution broth method; assay type: functional; conditions: ATCC 12344, 18 h
Enterococcus faecalis = assay: Antibacterial activity against Enterococcus faecalis ATCC 19433 after 18 hrs by microdilution broth method; assay type: functional; conditions: ATCC 19433, 18 h
Escherichia coli [2] = assay: Antibacterial activity against Escherichia coli CCUG after 18 hrs by microdilution broth method
Bacillus spizizenii = assay: Antibacterial activity against Bacillus subtilis ATCC 6633 after 18 hrs by microdilution broth method; assay type: functional; conditions: ATCC 6633, 18 h
Acinetobacter baumannii [3] = assay: Antibacterial activity against Acinetobacter baumannii ATCC 17978 after 18 hrs by microdilution broth method; assay type: functional; conditions: ATCC 17978, 18 h
Klebsiella pneumoniae [4] = assay: Antibacterial activity against Klebsiella pneumoniae ATCC […] after 18 hrs by microdilution broth method; assay type: functional
Staphylococcus aureus = assay: Antibacterial activity against Staphylococcus aureus ATCC 25923 after 18 hrs by microdilution broth method; assay type: functional; conditions: ATCC 25923, 18 h
[5] = test system: Stenotrophomonas maltophilia; assay: Antibacterial activity against Stenotrophomonas maltophilia isolate 634/08 after 18 hrs by microdilution broth method; assay type: functional; conditions: isolate 634/08, 18 h
Enterobacter cloacae = assay: Antibacterial activity against Enterobacter cloacae isolate VA-417/02 after 18 hrs by microdilution broth method; assay type: functional; conditions: isolate VA-417/02, 18 h
Klebsiella pneumoniae [6] = assay: Antibacterial activity against Klebsiella pneumoniae isolate SI-081 after 18 hrs by microdilution broth method; assay type: functional; conditions: isolate SI-081, 18 h
Burkholderia cepacia = assay: Antibacterial activity against Burkholderia cepacia isolate SI-R2 after 18 hrs by microdilution broth method; assay type: functional; conditions: isolate SI-R2, 18 h
Acinetobacter baumannii [7] = assay: Antibacterial activity against Acinetobacter baumannii isolate AC-54/97 after 18 hrs by microdilution broth method; assay type: functional; conditions: isolate AC-54/97, 18 h
Pseudomonas aeruginosa [8] = assay: Disruption of inner membrane integrity in Pseudomonas aeruginosa PAO1 ATCC 15692 co-expressing pMP2200::PrrnB plasmid assessed as induction of OPNG conversion at 256 ug/ml measured at 10 mins intervals for 1 hr; assay type: functional, organism-based
Acinetobacter baumannii [9] = assay: Disruption of inner membrane integrity in Acinetobacter baumannii ATCC 19606 co-expressing pMP2200::PrrnB plasmid assessed as induction of […] conversion at 256 ug/ml measured at 10 mins intervals for 1 hr; assay type: functional, organism-based; conditions: ATCC 19606 = CIP 70.34 = JCM 6841
Escherichia coli [10] = assay: Disruption of inner membrane integrity in Escherichia coli MG1655 assessed as induction of […] conversion at 256 ug/ml measured at 10 mins intervals for 1 hr; assay type: functional, organism-based; conditions: K-12 substr. MG1655

Structure (SMILES) | MIC (Pseudomonas aeruginosa [1]) | MIC (Streptococcus pyogenes) | MIC (Enterococcus faecalis) | MIC (Escherichia coli [2]) | MIC (Bacillus spizizenii) | MIC (Acinetobacter baumannii [3]) | MIC (Klebsiella pneumoniae [4]) | MIC (Staphylococcus aureus) | MIC [5] | MIC (Enterobacter cloacae) | MIC (Klebsiella pneumoniae [6]) | MIC (Burkholderia cepacia) | MIC (Acinetobacter baumannii [7]) | Activity (Pseudomonas aeruginosa [8]) | Activity (Acinetobacter baumannii [9]) | Activity (Escherichia coli [10])
N=C(N)NCCCCCCN(CCCCCCNC(=N)NCC1CC1)C(=O)N(CCCCCCNC(=N)NCC1CC1)CCCCCCNC(=N)NCC1CC1 | 128 µg/mL (≈ 163 µM) | 2 µg/mL (≈ 2.54 µM) | 16 µg/mL (≈ 20.3 µM) | 8 µg/mL (≈ 10.2 µM) | 4 µg/mL (≈ 5.08 µM) | 64 µg/mL (≈ 81.3 µM) | 16 µg/mL (≈ 20.3 µM) | 4 µg/mL (≈ 5.08 µM) |  |  |  |  |  |  |  | 
N=C(NCCCCCCCCN(CCCCCCCCNC(=N)NCc1ccccc1)C(=O)N(CCCCCCCCNC(=N)NCc1ccccc1)CCCCCCCCNC(=N)NCc1ccccc1)NCc1ccccc1 | 8 µg/mL (≈ 7.29 µM) | 1 µg/mL (≈ 0.911 µM) | 4 µg/mL (≈ 3.64 µM) | 4 µg/mL (≈ 3.64 µM) | 4 µg/mL (≈ 3.64 µM) | 16 µg/mL (≈ 14.6 µM) | 4 µg/mL (≈ 3.64 µM) | 8 µg/mL (≈ 7.29 µM) |  |  |  |  |  |  |  | 
N=C(N)NCCCCCCCCN(CCCCCCCCNC(=N)NCc1ccccc1)C(=O)N(CCCCCCCCNC(=N)N)CCCCCCCCNC(=N)NCc1ccccc1 | 16 µg/mL (≈ 17.4 µM) | 2 µg/mL (≈ 2.18 µM) | 2 µg/mL (≈ 2.18 µM) | 4 µg/mL (≈ 4.36 µM) | 2 µg/mL (≈ 2.18 µM) | 8 µg/mL (≈ 8.72 µM) | 2 µg/mL (≈ 2.18 µM) | 2 µg/mL (≈ 2.18 µM) | 8 µg/mL (≈ 8.72 µM) | 4 µg/mL (≈ 4.36 µM) | 8 µg/mL (≈ 8.72 µM) | 16 µg/mL (≈ 17.4 µM) |  |  |  | 
N=C(N)NCCCCCCN(CCCCCCNC(=N)NCC1CC1)C(=O)N(CCCCCCNC(=N)N)CCCCCCNC(=N)NCC1CC1 | 256 µg/mL (≈ 349 µM) | 2 µg/mL (≈ 2.73 µM) | 32 µg/mL (≈ 43.6 µM) | 16 µg/mL (≈ 21.8 µM) | 4 µg/mL (≈ 5.46 µM) | 128 µg/mL (≈ 175 µM) | 32 µg/mL (≈ 43.6 µM) | 4 µg/mL (≈ 5.46 µM) |  |  |  |  |  |  |  | 
N=C(N)NCCCCCCCCN(CCCCCCCCNC(=N)N)C(=O)N(CCCCCCCCNC(=N)NCC1CC1)CCCCCCCCNC(=N)NCC1CC1 | 16 µg/mL (≈ 18.9 µM) | 4 µg/mL (≈ 4.73 µM) | 8 µg/mL (≈ 9.46 µM) | 4 µg/mL (≈ 4.73 µM) | 2 µg/mL (≈ 2.37 µM) | 16 µg/mL (≈ 18.9 µM) | 4 µg/mL (≈ 4.73 µM) | 8 µg/mL (≈ 9.46 µM) |  |  |  |  |  |  |  | 
CCNC(=N)NCCCCCCN(CCCCCCNC(=N)N)C(=O)N(CCCCCCNC(=N)NCC)CCCCCCNC(=N)NCC | > 256 µg/mL | 4 µg/mL (≈ 5.64 µM) | 64 µg/mL (≈ 90.3 µM) | 64 µg/mL (≈ 90.3 µM) | 16 µg/mL (≈ 22.6 µM) | 256 µg/mL (≈ 361 µM) | 128 µg/mL (≈ 181 µM) | 32 µg/mL (≈ 45.1 µM) |  |  |  |  |  |  |  | 
CNC(=N)NCCCCCCCCN(CCCCCCCCNC(=N)N)C(=O)N(CCCCCCCCNC(=N)N)CCCCCCCCNC(=N)NC | 8 µg/mL (≈ 10.5 µM) | 0.5 µg/mL (≈ 0.653 µM) | 1 µg/mL (≈ 1.31 µM) | 1 µg/mL (≈ 1.31 µM) | 0.5 µg/mL (≈ 0.653 µM) | 8 µg/mL (≈ 10.5 µM) | 4 µg/mL (≈ 5.23 µM) | 0.5 µg/mL (≈ 0.653 µM) | 16 µg/mL (≈ 20.9 µM) | 4 µg/mL (≈ 5.23 µM) | 8 µg/mL (≈ 10.5 µM) | 32 µg/mL (≈ 41.8 µM) | 4 µg/mL (≈ 5.23 µM) |  |  | 
CCCCCCCCCCCCOS(=O)(=O)[O-].[Na+] |  |  |  |  |  |  |  |  |  |  |  |  |  | Active | Active | Active
CCNC(=N)NCCCCCCCCN(CCCCCCCCNC(=N)NCC)C(=O)N(CCCCCCCCNC(=N)NCC)CCCCCCCCNC(=N)NCC | 32 µg/mL (≈ 37.7 µM) | 0.25 µg/mL (≈ 0.294 µM) | 1 µg/mL (≈ 1.18 µM) | 2 µg/mL (≈ 2.35 µM) | 0.5 µg/mL (≈ 0.589 µM) | 16 µg/mL (≈ 18.8 µM) | 4 µg/mL (≈ 4.71 µM) | 0.5 µg/mL (≈ 0.589 µM) | 32 µg/mL (≈ 37.7 µM) | 2 µg/mL (≈ 2.35 µM) | 8 µg/mL (≈ 9.42 µM) | 32 µg/mL (≈ 37.7 µM) | 8 µg/mL (≈ 9.42 µM) |  |  | 
CCNC(=N)NCCCCCCCCN(CCCCCCCCNC(=N)N)C(=O)N(CCCCCCCCNC(=N)N)CCCCCCCCNC(=N)NCC | 16 µg/mL (≈ 20.2 µM) | 0.5 µg/mL (≈ 0.63 µM) | 1 µg/mL (≈ 1.26 µM) | 2 µg/mL (≈ 2.52 µM) | 1 µg/mL (≈ 1.26 µM) | 16 µg/mL (≈ 20.2 µM) | 2 µg/mL (≈ 2.52 µM) | 1 µg/mL (≈ 1.26 µM) | 16 µg/mL (≈ 20.2 µM) | 4 µg/mL (≈ 5.04 µM) | 4 µg/mL (≈ 5.04 µM) | 32 µg/mL (≈ 40.3 µM) |  |  |  | 
CNC(=O)NC(=N)NCCCCCCCCN(CCCCCCCCNC(=N)NC(=O)NC)C(=O)N(CCCCCCCCNC(=N)NCC1CC1)CCCCCCCCNC(=N)NCC1CC1 | 16 µg/mL (≈ 16.7 µM) | 2 µg/mL (≈ 2.08 µM) | 4 µg/mL (≈ 4.17 µM) | 4 µg/mL (≈ 4.17 µM) | 2 µg/mL (≈ 2.08 µM) | 8 µg/mL (≈ 8.34 µM) | 4 µg/mL (≈ 4.17 µM) | 2 µg/mL (≈ 2.08 µM) |  |  |  |  |  |  |  | 
CCCCCCCCCC(=O)N[C@@H](Cc1c[nH]c2ccccc12)C(=O)N[C@H](CC(N)=O)C(=O)N[C@@H](CC(=O)O)C(=O)N[C@@H]1C(=O)NCC(=O)N[C@@H](CCCN)C(=O)N[C@@H](CC(=O)O)C(=O)N[C@H](C)C(=O)N[C@@H](CC(=O)O)C(=O)NCC(=O)N[C@H](CO)C(=O)N[C@@H]([C@H](C)CC(=O)O)C(=O)N[C@@H](CC(=O)c2ccccc2N)C(=O)O[C@@H]1C |  | 0.12 µg/mL (≈ 0.074 µM) | 1 µg/mL (≈ 0.617 µM) |  | 1 µg/mL (≈ 0.617 µM) |  |  | 0.5 µg/mL (≈ 0.309 µM) |  |  |  |  |  |  |  | 
CC(C)(C)OC(=O)/N=C(/NCCCCCCCCN(CCCCCCCCN/C(=N/C(=O)OC(C)(C)C)NC(=O)OC(C)(C)C)C(=O)N(CCCCCCCCN/C(=N/C(=O)OC(C)(C)C)N(CC1CC1)C(=O)OC(C)(C)C)CCCCCCCCN/C(=N/C(=O)OC(C)(C)C)N(CC1CC1)C(=O)OC(C)(C)C)NC(=O)OC(C)(C)C | ≥ 256 µg/mL | ≥ 256 µg/mL | ≥ 256 µg/mL | ≥ 256 µg/mL | ≥ 256 µg/mL | ≥ 256 µg/mL | ≥ 256 µg/mL | ≥ 256 µg/mL | ≥ 256 µg/mL | ≥ 256 µg/mL | ≥ 256 µg/mL | ≥ 256 µg/mL | ≥ 256 µg/mL |  |  | 
N=C(NCCCCCCCCN(CCCCCCCCNC(=N)NCC1CC1)C(=O)N(CCCCCCNC(=N)NCC1CC1)CCCCCCNC(=N)NCC1CC1)NCC1CC1 | 128 µg/mL (≈ 143 µM) | 1 µg/mL (≈ 1.11 µM) | 8 µg/mL (≈ 8.91 µM) | 4 µg/mL (≈ 4.46 µM) | 4 µg/mL (≈ 4.46 µM) | 64 µg/mL (≈ 71.3 µM) | 4 µg/mL (≈ 4.46 µM) | 2 µg/mL (≈ 2.23 µM) |  |  |  |  |  |  |  | 
CN[C@H](CC(C)C)C(=O)N[C@H]1C(=O)N[C@@H](CC(N)=O)C(=O)N[C@H]2C(=O)N[C@H]3C(=O)N[C@H](C(=O)N[C@H](C(=O)O)c4cc(O)cc(O)c4-c4cc3ccc4O)[C@H](O)c3ccc(c(Cl)c3)Oc3cc2cc(c3O[C@@H]2O[C@H](CO)[C@@H](O)[C@H](O)[C@H]2O[C@H]2C[C@](C)(N)[C@H](O)[C@H](C)O2)Oc2ccc(cc2Cl)[C@H]1O [VANCOMYCIN] |  |  | 1 µg/mL (≈ 0.69 µM) |  | 0.5 µg/mL (≈ 0.345 µM) |  |  |  |  |  |  |  |  |  |  | 

From ChEMBL document CHEMBL4308851, “Alkyl-guanidine Compounds as Potent Broad-Spectrum Antibacterial Agents: Chemical Library Extension and Biological Characterization” (J Med Chem, 2018)
